Molecules are shown by their SMILES. Converted amounts (≈) assume the structure as drawn. Some results are limits rather than exact numbers.

Common to all, as to assay type: functional
Assay [1] deals with Mycobacterium tuberculosis. Put plainly: Antimycobacterial activity against Mycobacterium tuberculosis H37Ra UAlRa incubated for 6 days by luminescence based assay. Conditions: 144 h.
Assay [2] relates to Mycobacterium tuberculosis. Put plainly: Antimycobacterial activity against Mycobacterium tuberculosis H37Rv.
In assay [3] the test system is Mycobacterium tuberculosis. Put plainly: Antimycobacterial activity against Mycobacterium tuberculosis K2.
Assay [4] concerns Mycobacterium tuberculosis. Put plainly: Antimycobacterial activity against Mycobacterium tuberculosis K12.
In assay [5] the test system is Mycobacterium tuberculosis. Put plainly: Antimycobacterial activity against Mycobacterium tuberculosis K16.
Assay [6] has as its system Mycobacterium tuberculosis. Put plainly: Antimycobacterial activity against Mycobacterium tuberculosis K18.
Assay [7] concerns Mycobacterium tuberculosis. Put plainly: Antimycobacterial activity against Mycobacterium tuberculosis K4.
Assay [8] relates to Mycobacterium tuberculosis. Put plainly: Antimycobacterial activity against Mycobacterium tuberculosis K5.

The term MIC denotes the lowest concentration found to suppress growth. Read a high MIC as a need for much substance. The molecule `CC(O)c1cc2c(o1)C(=O)c1ccccc1C2=O` (configuration not stated) showed a minimum inhibitory concentration (MIC) in assay [1] of 41.2 µM (≈ 9.98 µg/mL).

Turning to `CC(c1cc2c(o1)C(=O)c1ccccc1C2=O)N1CCCCC1` (configuration not stated), 32.3 µM (≈ 9.99 µg/mL) was the least that counted as inhibitory in assay [1] (MIC).

`CC(c1cc2c(o1)C(=O)c1ccccc1C2=O)N1CCOCC1` (configuration not stated) gave an MIC in assay [1] of 32.1 µM (≈ 9.99 µg/mL). The MIC values of the last two molecules are within 1.5-fold of each other.

In the case of `CC(Br)c1cc2c(o1)C(=O)c1ccccc1C2=O` (configuration not stated), in assay [1], inhibition of growth (MIC) required 16.5 µM (≈ 5.03 µg/mL).

Consider `COC(=O)CC1CCN(C(=O)c2cc3c(o2)C(=O)c2ccccc2C3=O)CC1`, for which, in assay [1], the lowest concentration to inhibit growth (MIC) was 3.28 µM (≈ 1.25 µg/mL).

Regarding `O=C(NCCN1CCOCC1)c1cc2c(o1)C(=O)c1ccccc1C2=O`, inhibition of growth in assay [1] (MIC) required 7.1 µM (≈ 2.52 µg/mL).

As to `O=C(NC1CCCCC1)c1cc2c(o1)C(=O)c1ccccc1C2=O`, the MIC in assay [1] was 7.7 µM (≈ 2.49 µg/mL).

Turning to `CCN1CCN(C(=O)c2cc3c(o2)C(=O)c2ccccc2C3=O)CC1`, the lowest concentration to inhibit growth in assay [1] (MIC) was 7.4 µM (≈ 2.5 µg/mL).

Consider `O=C1c2ccccc2C(=O)c2oc(C(=O)N3CCC(c4cccc(Cl)c4)CC3)cc21`, for which the minimal inhibitory concentration (MIC) in assay [1] was not below 23.9 µM.

Turning to `O=C(NCCc1ccccc1)c1cc2c(o1)C(=O)c1ccccc1C2=O`, the MIC in assay [1] is not below 28.9 µM.

Turning to `O=C(NCCc1ccccc1F)c1cc2c(o1)C(=O)c1ccccc1C2=O`, the MIC came to 1.7 µM (≈ 0.618 µg/mL) in assay [1]; 0.5 µg/mL (≈ 1.38 µM) in assay [2]; 0.5 µg/mL (≈ 1.38 µM) in assay [3]; 2.5 µg/mL (≈ 6.88 µM) in assay [4]; 2.5 µg/mL (≈ 6.88 µM) in assay [5]; 2.5 µg/mL (≈ 6.88 µM) in assay [6]. The MIC in assay [7] and in assay [8] was 12.5 µg/mL (≈ 34.4 µM) throughout.

`O=C(NCCc1ccc(F)cc1)c1cc2c(o1)C(=O)c1ccccc1C2=O` yielded an MIC in assay [1] of 1.7 µM (≈ 0.618 µg/mL).

For the molecule `O=C1c2ccccc2C(=O)c2oc(C(=O)N3CCN(c4cccc(C(F)(F)F)c4)CC3)cc21`, the MIC in assay [1] was 2.7 µM (≈ 1.23 µg/mL); in assay [2], 1 µg/mL (≈ 2.2 µM); in assay [3], 0.5 µg/mL (≈ 1.1 µM); in assay [4], 1 µg/mL (≈ 2.2 µM); in assay [5], 1 µg/mL (≈ 2.2 µM); in assay [6], 2.5 µg/mL (≈ 5.5 µM). Further, the MIC in assay [7] and in assay [8] was 25 µg/mL (≈ 55 µM) throughout.

Consider `O=C1c2ccccc2C(=O)c2oc(C(=O)N3CCCCC3)cc21`, for which the minimal inhibitory concentration (MIC) was 2 µM (≈ 0.619 µg/mL) in assay [1]; 0.5 µg/mL (≈ 1.62 µM) in assay [2]; 0.5 µg/mL (≈ 1.62 µM) in assay [3]; 1 µg/mL (≈ 3.23 µM) in assay [4]; 1 µg/mL (≈ 3.23 µM) in assay [5]; 2.5 µg/mL (≈ 8.08 µM) in assay [6]. The MIC in assay [7] and in assay [8] was 12.5 µg/mL (≈ 40.4 µM) throughout.

Molecule `O=C1c2ccccc2C(=O)c2oc(C(=O)N3CCC(c4ccc(F)cc4)CC3)cc21` showed an MIC in assay [1] not below 24.9 µM.

Turning to `O=C1c2ccccc2C(=O)c2oc(C(=O)N3CCOCC3)cc21`, the lowest concentration to inhibit growth in assay [1] (MIC) was 4 µM (≈ 1.25 µg/mL).

With `O=C1c2ccccc2C(=O)c2oc(C(=O)N3CCCC3)cc21`, the MIC in assay [1] turned out to be 4.2 µM (≈ 1.24 µg/mL).

In assay [1], `O=C(NCc1ccccc1F)c1cc2c(o1)C(=O)c1ccccc1C2=O` gave a minimal inhibitory concentration (MIC) of 1.8 µM (≈ 0.629 µg/mL).

For the molecule `O=C(/C=C/c1ccccc1)c1cc2c(o1)C(=O)c1ccccc1C2=O`, the MIC in assay [1] was not below 30.4 µM.

`O=C(NCCc1ccc(Cl)cc1)c1cc2c(o1)C(=O)c1ccccc1C2=O` yielded a minimal inhibitory concentration (MIC) in assay [1] of 6.6 µM (≈ 2.51 µg/mL).

For the molecule `O=C(NCc1cccc(F)c1)c1cc2c(o1)C(=O)c1ccccc1C2=O`, the minimum inhibitory concentration (MIC) in assay [1] is 0.9 µM (≈ 0.314 µg/mL).

In assay [1], `CN1CCN(C(=O)c2cc3c(o2)C(=O)c2ccccc2C3=O)CC1` yielded an MIC of 7.7 µM (≈ 2.5 µg/mL).

In the case of `O=C1c2ccccc2C(=O)c2oc(C(=O)N3CCSCC3)cc21`, the MIC was 1.9 µM (≈ 0.622 µg/mL) in assay [1]; 0.5 µg/mL (≈ 1.53 µM) in assay [2]; 0.25 µg/mL (≈ 0.764 µM) in assay [3]; 0.5 µg/mL (≈ 1.53 µM) in assay [4]; 0.5 µg/mL (≈ 1.53 µM) in assay [5]; 0.5 µg/mL (≈ 1.53 µM) in assay [6]. In addition, the minimal inhibitory concentration (MIC) in assay [7] worked out at 2 µg/mL (≈ 6.11 µM); in assay [8], 4 µg/mL (≈ 12.2 µM).

Molecule `O=C(/C=C/c1cccs1)c1cc2c(o1)C(=O)c1ccccc1C2=O` came in with a minimal inhibitory concentration (MIC) in assay [1] of 29.9 µM (≈ 10 µg/mL).

In assay [1], `O=C1CCN(C(=O)c2cc3c(o2)C(=O)c2ccccc2C3=O)CC1` yielded a minimal inhibitory concentration (MIC) of 7.7 µM (≈ 2.49 µg/mL).

For `Cn1cccc1/C=C/C(=O)c1cc2c(o1)C(=O)c1ccccc1C2=O`, the minimal inhibitory concentration (MIC) in assay [1] is not below 30.4 µM.

With `O=C(NCCN1CCCCC1)c1cc2c(o1)C(=O)c1ccccc1C2=O`, in assay [1], the MIC was determined as 3.6 µM (≈ 1.27 µg/mL).

As to `O=C(NCCc1cccc(F)c1)c1cc2c(o1)C(=O)c1ccccc1C2=O`, in assay [1], inhibition of growth (MIC) required 0.9 µM (≈ 0.327 µg/mL).

On to `CC1(C)CCC(NC(=O)c2cc3c(o2)C(=O)c2ccccc2C3=O)CC1`, for which the MIC in assay [1] was 3.56 µM (≈ 1.25 µg/mL); in assay [2], 0.5 µg/mL (≈ 1.42 µM); in assay [3], 0.25 µg/mL (≈ 0.711 µM); in assay [4], 2.5 µg/mL (≈ 7.11 µM); in assay [5], 2.5 µg/mL (≈ 7.11 µM); in assay [6], 2.5 µg/mL (≈ 7.11 µM). In addition, the MIC in assay [7] and in assay [8] was 25 µg/mL (≈ 71.1 µM) each time.

On to `O=C(NCc1ccc(F)cc1)c1cc2c(o1)C(=O)c1ccccc1C2=O`, for which the MIC in assay [1] is 1.8 µM (≈ 0.629 µg/mL).

In the case of `O=C(/C=C/c1ccc(O)cc1)c1cc2c(o1)C(=O)c1ccccc1C2=O`, the MIC in assay [1] is not below 29.1 µM.

Consider `CC(=O)c1cc2c(o1)C(=O)c1ccccc1C2=O` [NAPABUCASIN], for which, in assay [1], the minimal inhibitory concentration (MIC) came out at 10.4 µM (≈ 2.5 µg/mL).

Source of the values: ChEMBL document CHEMBL4334434, “Discovery of napabucasin derivatives for the treatment of tuberculosis” (2019).
